Results from patent publication US20200386742A1, “CELL SYSTEMS USING SPHEROIDS AND METHODS OF MAKING AND USING THE SAME” (priority 2017, published 2020).

System: embryonic dorsal root ganglion (DRG) explants
Type: cell-based

Structure (SMILES): NC1=N[C@H](O)[C@H]2[C@H]3O[C@]4(O)O[C@@H]([C@@H](O)[C@@]2(N1)[C@@H]4O)[C@]3(O)CO [tetrodotoxin]
- effect on electrically evoked compound action potentials (CAPs): reversibly abolished
